Patent publication US20250250265A1, “BENZOTHIAZOLE-PHENYLSULFONYL-PIPERIDINE ANALOGS AS ACTIVATORS OF NACYLPHOSPHATIDYLETHANOLAMINE HYDROLYZING PHOSPHOLIPASE D” (priority 2022, published 2025)
Entries after “also recorded” stand apart in the source; their conditions may differ.

Columns and labels:
[1] = biological target: T1, NAPE-PLD activity of HepG2 cells (Homo sapiens, UniProt Q6IQ20); experiment: Cell-based NAPE-PLD activity in HepG2 cells (flame-NAPE); settings: for In-cell NAPE-PLD activity in HepG2 (10 μM) with PED-A1 or flame-NAPE as substrate: Table 3; for Emax / EC50: HepG2 cells; for Emax: % maximal induced activity (Table 2, Example 7); for EC50: flame-NAPE (Table 2, Example 7); for effect on NAPE-PLD activity in HepG2 cells: graded concentrations
T1 construct: endogenous in cells; host or cells: HepG2
T1 sequence (Q6IQ20 whole entry): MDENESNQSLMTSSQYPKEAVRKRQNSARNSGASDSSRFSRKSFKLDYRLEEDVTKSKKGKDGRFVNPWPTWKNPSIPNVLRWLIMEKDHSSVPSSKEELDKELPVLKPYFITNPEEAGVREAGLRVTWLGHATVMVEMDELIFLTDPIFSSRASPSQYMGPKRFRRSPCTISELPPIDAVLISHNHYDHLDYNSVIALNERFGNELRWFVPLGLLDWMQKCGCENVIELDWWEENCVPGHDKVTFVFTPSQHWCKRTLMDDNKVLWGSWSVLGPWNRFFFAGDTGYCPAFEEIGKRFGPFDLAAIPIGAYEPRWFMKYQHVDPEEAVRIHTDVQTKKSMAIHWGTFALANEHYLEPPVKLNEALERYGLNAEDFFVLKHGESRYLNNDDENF
Method: In vitro models of the hepatic steatosis of non-alcoholic fatty liver disease (NAFLD) are well-established, with the primary method being incubation of primary human hepatocytes or hepatocyte cell lines such as HepG2, HuH7, HepaRG, with oleic acid and palmitic acid for 24 to 48 h, then measuring the resulting steatosis, lipid peroxidation, apoptosis, and inflammatory gene expression. Using flame-NAPE to measure NAPE-PLD activity in the human hepatoma HepG2 cell line, the experimental data confirmed that VU534 activated NAPE-PLD in human cells (AC50 940 nM; max % bA 155%). Bithionol (10 μM) reduced HepG2 flame-NAPE hydrolysis by >67%.
NAPE-PLD activity was measured in cells as previously described, except that FluoroBrite DMEM (Gibco A1896701) was used as media. See Zarrow et al., J. Lipid Res. 63(1): 100156 (2022). For RAW264.7 assays, PED-A1 (3.6 μM final) was used as the substrate with 10 μM orlistat added to inhibit PLA1 activity, while for HepG2 cells, flame-NAPE was used (with no orlistat added).

[2] = system: HepG2 human hepatocytoma cells; experiment: Cytotoxicity (MTT) in HepG2 cells; type: cell-based; settings: for % HepG2 viability (33 μM): Table 3; for cytotoxicity in HepG2 cells: up to / at 30 μM
Method: (§1) Cytotoxicity was measured using MTT as previously described except that the studies used 96-well plates with 100 μL of 0.3 mg/mL MTT solution was added after 24 h of treatment and then replaced after 3 h with 0.1 M HCl in isopropanol. See Aggarwal et al., J. Biol. Chem. 295(21): 7289-7300 (2020). Viability was expressed as percent absorbance at 560 nm relative to vehicle controls.

[3] = system: RAW264.7 mouse macrophages; experiment: Cytotoxicity (MTT) in RAW264.7 macrophages; type: cell-based; settings: for % viability RAW 264.7 (33 μM): Table 3; for 33 μM Mϕ % Viability: Table 2, 33 μM compound; for cytotoxicity in RAW264.7 cells: up to / at 30 μM
Method: as §1

[4] = biological target: T2, Fatty Acid Amide Hydrolase (FAAH) (Homo sapiens, UniProt O00519); experiment: FAAH activity assay (Cayman Chemicals); type: biochemical; settings: for Remaining FAAH Activity (33 μM): Table 3; for inhibition at 33 µM: 33 μM compound, compared to vehicle (0%); for inhibition of FAAH activity: graded concentrations up to 33 μM
T2 construct: purchased Cayman Chemicals
T2 sequence (O00519 1-579): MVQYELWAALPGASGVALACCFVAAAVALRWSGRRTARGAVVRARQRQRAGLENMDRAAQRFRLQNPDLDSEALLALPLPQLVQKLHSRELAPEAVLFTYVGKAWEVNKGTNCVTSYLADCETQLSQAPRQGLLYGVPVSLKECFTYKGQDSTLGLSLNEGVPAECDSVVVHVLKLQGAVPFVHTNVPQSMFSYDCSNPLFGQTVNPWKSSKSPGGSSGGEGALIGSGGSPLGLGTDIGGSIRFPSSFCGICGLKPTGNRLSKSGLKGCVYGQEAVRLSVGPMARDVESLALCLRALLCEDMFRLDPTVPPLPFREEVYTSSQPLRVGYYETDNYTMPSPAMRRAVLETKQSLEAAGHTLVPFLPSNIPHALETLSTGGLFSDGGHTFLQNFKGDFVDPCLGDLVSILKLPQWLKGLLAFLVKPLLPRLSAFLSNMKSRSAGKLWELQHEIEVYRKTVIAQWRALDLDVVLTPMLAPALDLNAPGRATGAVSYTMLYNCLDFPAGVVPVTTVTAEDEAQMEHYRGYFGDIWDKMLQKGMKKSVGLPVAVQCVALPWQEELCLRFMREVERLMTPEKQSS
Method: Concentration response curves were plotted for VU534 for the enzymes fatty acid amide hydrolase (FAAH) and soluble epoxide hydrolase (sEH).
The fluorescence interference assay was performed using the same method as the HTS assay, but with BODIPY-FL C5 (Thermo Fisher Scientific) used in place of PED-A1. sEH and FAAH activity assays were performed according to the manufacturer's specifications (Cayman Chemicals).

[5] = biological target: T3, recombinant human NAPE-PLD (Homo sapiens, UniProt Q6IQ20); experiment: Concentration response with recombinant human NAPE-PLD, PED-A1 as substrate; type: biochemical; settings: for effect on activity of recombinant human NAPE-PLD: graded concentrations (FIG. 18A)
T3 construct: The expression plasmid including the full-length human NAPEPLD gene with a C-terminal hexahistidine tag; hexahistidine (His6) (C)
T3 sequence (Q6IQ20 whole entry): as the sequence (Q6IQ20 whole entry) above
Text: FIG. 18A-B show VU534 and VU533 activate human NAPE-PLD. […] Mean±SEM, n=3. Non-linear regression with variable slope (four parameter) was used to calculate EC50 and Emax.
Initial stocks of potential NAPE-PLD modulator compounds were purchased from Life Chemicals and provided by the Vanderbilt HTS screening facility. Additional compounds were synthesized by the Vanderbilt Chemical Synthesis core. LEI-401, [^2H4]PEA and [^2H4]OEA were purchased from Cayman Chemicals. N-palmitoyl-PE, 1,2-dioleoyl-PE and 1,2-dihexanoyl-PE were purchased from Avanti Polar Lipids. PED-A1 was purchased from Invitrogen. Flame-NAPE was synthesized as previously described. See Zarrow et al., J. Lipid Res. 63(1): 100156 (2022). [^2H4]N-palmitoyl-PE was synthesized using [^2H4] palmitic acid (Cambridge Isotope Laboratories) and 1,2-dioleoyl-PE and N-oleoyl-PE was synthesized using 1,2-dihexanoyl-PE and oleoyl chloride (Millipore Sigma). Recombinant mouse NAPE-PLD with a C-terminal hexahistidine tag was expressed in E. coli and purified using cobalt affinity beads as previously described. See Aggarwal et al., J. Biol. Chem. 295(21): 7289-7300 (2020). The expression plasmid including the full-length human NAPEPLD gene with a C-terminal hexahistidine tag inserted in a pET plasmid was purchased from VectorBuilder, and the protein expressed and purified in an identical manner to recombinant mouse NAPE-PLD. The sEH inhibitors TPPU (N-[1-(1-Oxopropyl)-4-piperidinyl]-N′-[4-(trifluoromethoxy)phenyl]urea) and AUDA (12-[[(tricyclo[3.3.1.13,7]dec-1-ylamino)carbonyl]amino]-dodecanoic acid) were purchased from Cayman Chemical and Sigma Chemicals, respectively.
In vitro fluorescence NAPE-PLD activity assays using recombinant NAPE-PLD and either PED-A1 or flame-NAPE as fluorogenic substrate were performed as previously described except with small modifications as noted below. See Aggarwal et al., J. Biol. Chem. 295(21): 7289-7300 (2020); Zarrow et al., J. Lipid Res. 63(1): 100156 (2022).
Concentration response curve (CRC) experiments used the same assay conditions as the HTS assay, except that graded concentrations of each test compound were used, with total amount of vehicle (DMSO) kept constant. CRC experiments with purified recombinant mouse NAPE-PLD were performed on two separate days, with values from each day normalized to vehicle only controls on same plate, and then all normalized values from both days averaged together. CRC experiments with human NAPE-PLD represent value from only a single day, due to limited amounts of this recombinant enzyme.

Row | Structure (SMILES) | In-cell NAPE-PLD activity in HepG2 (10 μM) with PED-A1 or flame-NAPE as substrate [1] | % HepG2 viability (33 μM) [2] | % viability RAW 264.7 (33 μM) [3] | Remaining FAAH Activity (33 μM) [4] | 33 μM Mϕ % Viability [3] | inhibition at 33 µM [4] | also measured
1 | Cc1cccc2sc(NC(=O)C3CCN(S(=O)(=O)c4ccc(F)c(Cl)c4)CC3)nc12 [VU209] | 206% | 73% | 88% | 88% |  |  | 
2 | O=C(Nc1nc2ccccc2s1)C1CCN(S(=O)(=O)c2cccnc2)CC1 [VU203] | 122% | 41% | 57% | 79% |  |  | 
3 | Cc1cccc2sc(NC(=O)C3CCN(S(=O)(=O)c4ccc(F)c(Cl)c4)CC3)nc12 [MRJ-058B] |  |  |  |  | >85% | < 15% | 
4 | Cc1ccc2nc(NC(=O)C3CCN(S(=O)(=O)c4ccc(F)cc4)CC3)sc2c1 [VU486] |  |  | 89% | 89% | >85% | < 15% | 
5 | Cc1cccc2sc(NC(=O)C3CCN(S(=O)(=O)c4cccnc4)CC3)nc12 [MRJ-058C] |  |  |  |  | >85% | < 15% | 
6 | O=C(Nc1nc2ccccc2s1)C1CCN(S(=O)(=O)c2ccc(F)c(Cl)c2)CC1 [VU233] | 130% | 69% | 111% | 90% |  |  | EC50, NAPE-PLD activity of HepG2 cells ([1]; FIG. 18B, flame-NAPE): not calculable; cytotoxicity in HepG2 cells [2]: no cytotoxicity; cytotoxicity in RAW264.7 cells [3]: no cytotoxicity; inhibition of FAAH activity [4]: only weak inhibition; EC50, recombinant human NAPE-PLD ([5]; FIG. 18A, PED-A1): not calculable; effect on activity of recombinant human NAPE-PLD [5]: no significant effect
7 | Cc1cccc2sc(NC(=O)C3CCN(S(=O)(=O)c4cnn(C)c4)CC3)nc12 [VU210] | 124% | 67% | 86% | 89% |  |  | 
8 | Cn1cc(S(=O)(=O)N2CCC(C(=O)Nc3nc4ccccc4s3)CC2)cn1 [VU227] | 125% | 66% | 106% | 97% |  |  | 
9 | Cc1ccc2sc(NC(=O)C3CCN(S(=O)(=O)c4ccc(F)cc4)CC3)nc2c1C [VU517] |  |  | 83% | 90% | 80% | < 15% | Emax [1]: 185%; EC50 [1]: 8900 nM; effect on NAPE-PLD activity in HepG2 cells ([1]; flame-NAPE): enhances NAPE-PLD activity
10 | Cc1cc2nc(NC(=O)C3CCN(S(=O)(=O)c4ccc(F)cc4)CC3)sc2cc1C [VU536] |  |  | 114% | 75% | >85% | 25% | 
11 | Cc1ccc(S(=O)(=O)N2CCC(C(=O)Nc3nc4c(C)cc(C)cc4s3)CC2)cc1 [VU575] |  |  | 85% | 90% | >85% | < 15% | Emax [1]: 145%; EC50 [1]: 3100 nM; effect on NAPE-PLD activity in HepG2 cells ([1]; flame-NAPE): enhances NAPE-PLD activity
12 | Cc1ccc(C)c2sc(NC(=O)C3CCN(S(=O)(=O)c4ccc(F)cc4)CC3)nc12 [VU533] |  |  |  |  |  |  | Emax, NAPE-PLD activity of HepG2 cells ([1]; FIG. 18B, flame-NAPE): 1.6 fold; effect on NAPE-PLD activity in HepG2 cells ([1]; flame-NAPE): increased NAPE-PLD activity; cytotoxicity in HepG2 cells [2]: no cytotoxicity; cytotoxicity in RAW264.7 cells [3]: no cytotoxicity; inhibition of FAAH activity [4]: only weak inhibition; Emax, recombinant human NAPE-PLD ([5]; FIG. 18A, PED-A1): 1.9 fold; effect on activity of recombinant human NAPE-PLD [5]: concentration-dependent increases
13 | Cc1cc(C)c2sc(NC(=O)C3CCN(S(=O)(=O)c4ccc(F)cc4)CC3)nc2c1 [VU534, N-(5,7-Dimethylbenzo[d]thiazol-2-yl)-1-((4-fluorophenyl)sulfonyl)piperidine-4-carboxamide] | 211% | 91% | 89% | 86% | >85% | < 15% | Emax, NAPE-PLD activity of HepG2 cells ([1]; FIG. 18B, flame-NAPE): 1.6 fold; AC50 ([1]; HepG2, flame-NAPE (Example 7)): 940 nM; max % bA in HepG2 cells ([1]; HepG2, flame-NAPE (Example 7)): 155%; Emax [1]: 145%; EC50 [1]: 2400 nM; effect on NAPE-PLD activity in HepG2 cells ([1]; flame-NAPE): increased NAPE-PLD activity; also recorded: enhances NAPE-PLD activity; cytotoxicity in HepG2 cells [2]: minimal cytotoxicity; cytotoxicity in RAW264.7 cells [3]: minimal cytotoxicity; inhibition of FAAH activity [4]: no inhibition of FAAH; also recorded: only weak inhibition; also recorded: does not inhibit; Emax, recombinant human NAPE-PLD ([5]; FIG. 18A, PED-A1): 1.8 fold; effect on activity of recombinant human NAPE-PLD [5]: concentration-dependent increases
14 | Cc1cccc2sc(NC(=O)C3CCN(S(=O)(=O)c4cnn(C)c4)CC3)nc12 [MRJ-058D] |  |  |  |  | >85% | < 15% | 
15 | Cc1cccc2sc(NC(=O)C3CCN(S(=O)(=O)c4cccnc4)CC3)nc12 [VU211] | 148% | 72% | 88% | 86% |  |  | 
